Eleven compounds from patent publication US9422264B2, “Carbamate-substituted oxindole derivatives and use thereof for the treatment of vasopressin-dependent diseases” (AbbVie Deutschland GmbH & Co. KG, priority 2007, dated 2016) can be followed below.

Structures are written as SMILES. Where a name gives a salt, the structure may show the parent alone.

Data set [1] deals with T1, human vasopressin V1b receptor (Homo sapiens, UniProt P47901).
T1 construct: expressed in transfected cells; host or cells: CHO-K1 (cell line hV1b_3H2_CHO)
T1 sequence (P47901 1-424): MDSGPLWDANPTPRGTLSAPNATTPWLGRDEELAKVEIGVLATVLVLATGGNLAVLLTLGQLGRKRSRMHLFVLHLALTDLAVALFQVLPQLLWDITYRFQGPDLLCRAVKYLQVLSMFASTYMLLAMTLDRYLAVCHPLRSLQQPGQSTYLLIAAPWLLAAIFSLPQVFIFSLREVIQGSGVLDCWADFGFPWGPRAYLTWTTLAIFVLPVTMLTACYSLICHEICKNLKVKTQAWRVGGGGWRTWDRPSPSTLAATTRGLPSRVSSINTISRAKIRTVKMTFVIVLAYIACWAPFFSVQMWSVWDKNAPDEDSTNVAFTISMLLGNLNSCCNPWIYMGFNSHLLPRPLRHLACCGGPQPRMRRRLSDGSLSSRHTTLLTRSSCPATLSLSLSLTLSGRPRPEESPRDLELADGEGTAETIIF
Kind of data set: Vasopressin V1b receptor binding assay. The note with it: read-out: Ki(h-V1b)*. The protocol:
1. Vasopressin V1b Receptor Binding Assay:
The substance concentration was further diluted 1:5 in the assay mixture (2% DMSO in the mixture).
All determinations were carried out as triplicate determinations.

The target of data set [2] is T2, recombinant human oxytocin receptors (Homo sapiens, UniProt P30559).
T2 construct: expressed in transfected cells; host or cells: HEK-293 (transient)
T2 sequence (P30559 1-389): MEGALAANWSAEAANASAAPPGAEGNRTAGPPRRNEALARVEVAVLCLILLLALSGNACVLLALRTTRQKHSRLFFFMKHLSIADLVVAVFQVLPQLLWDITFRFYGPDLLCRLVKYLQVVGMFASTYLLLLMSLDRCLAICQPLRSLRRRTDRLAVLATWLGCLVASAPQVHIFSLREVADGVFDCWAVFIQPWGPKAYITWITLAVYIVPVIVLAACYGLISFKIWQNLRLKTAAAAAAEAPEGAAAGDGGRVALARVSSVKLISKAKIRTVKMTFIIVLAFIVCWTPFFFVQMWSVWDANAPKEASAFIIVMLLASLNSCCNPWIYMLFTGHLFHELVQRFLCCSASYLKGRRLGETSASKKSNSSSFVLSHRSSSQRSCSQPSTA
Kind of data set: Oxytocin receptor binding assay. The note with it: selectivity quotient, human OT versus human V1b. As for the experimental part: 4. Oxytocin Receptor Binding Assay
Confluent HEK-293 cells with transiently expressing recombinant human oxytocin receptors were centrifuged at 750×g at room temperature for 5 minutes. The residue was taken up in ice-cold lysis buffer (50 mM Tris-HCl, 10% glycerol, pH 7.4 and Roche complete protease inhibitor) and subjected to an osmotic shock at 4° C. for 20 minutes. The lyzed cells were then centrifuged at 750×g at 4° C. for 20 minutes, the residue was taken up in incubation buffer, and aliquots of 10^7 cells/ml were prepared. The aliquots were frozen at −80° C. until used.
On the day of the experiment, the cells were thawed, diluted with incubation buffer and homogenized using a Multipette Combitip (Eppendorf, Hamburg). […] The nonspecific binding was determined with 10^−6 M oxytocin (Bachem AG, H2510). Triplicate determinations were set up. Bound and free radioligand were separated by filtration under vacuum with Whatman GF/B glass fiber filters with the aid of a Skatron cell harvester 7000. The bound radioactivity was determined by liquid scintillation measurement in a Tricarb Beta counter, model 2000 or 2200CA (Packard).

Data set [3] is described as follows: Determination of the microsomal half-life / microsomal clearance (human liver microsomes). The note with it: pH 7.4, 0.5 μM test substance. Format: in vitro ADME. The protocol:
5. Determination of the Microsomal Half-Life:
The metabolic stability of the compounds of the invention was determined in the following assay.
The test substances were incubated in a concentration of 0.5 μM as follows:
0.5 μM test substance are preincubated together with liver microsomes from different species (from rat, human or other species) (0.25 mg of microsomal protein/ml) in 0.05 M potassium phosphate buffer of pH 7.4 in microtiter plates at 37° C. for 5 min. The reaction is started by adding NADPH (1 mg/mL). After 0, 5, 10, 15, 20 and 30 min, 50 μl aliquots are removed, and the reaction is immediately stopped and cooled with the same volume of acetonitrile. The samples are frozen until analyzed. The remaining concentration of undegraded test substance is determined by MSMS. The half-life (T½) is determined from the gradient of the signal of test substance/unit time plot, it being possible to calculate the half-life of the test substance, assuming first order kinetics, from the decrease in the concentration of the compound with time. The microsomal clearance (mCl) is calculated from mCl=In2/T½/(content of microsomal protein in mg/ml)×1000 […] (modified from references: Di, The Society for Biomoleculur Screening, 2003, 453-462; Obach, DMD, 1999 vol. 27. N 11, 1350-1359).
A general note: Liver microsomes are vesicles of endoplasmic reticulum, rich in cytochrome P450 enzymes.

Data set [4] deals with human vasopressin V1a receptor (Homo sapiens, UniProt P37288). Kind of data set: Vasopressin V1a receptor binding assay. The note with it: selectivity quotient, human V1a versus human V1b.
human vasopressin V1a receptor, sequence (P37288 whole entry): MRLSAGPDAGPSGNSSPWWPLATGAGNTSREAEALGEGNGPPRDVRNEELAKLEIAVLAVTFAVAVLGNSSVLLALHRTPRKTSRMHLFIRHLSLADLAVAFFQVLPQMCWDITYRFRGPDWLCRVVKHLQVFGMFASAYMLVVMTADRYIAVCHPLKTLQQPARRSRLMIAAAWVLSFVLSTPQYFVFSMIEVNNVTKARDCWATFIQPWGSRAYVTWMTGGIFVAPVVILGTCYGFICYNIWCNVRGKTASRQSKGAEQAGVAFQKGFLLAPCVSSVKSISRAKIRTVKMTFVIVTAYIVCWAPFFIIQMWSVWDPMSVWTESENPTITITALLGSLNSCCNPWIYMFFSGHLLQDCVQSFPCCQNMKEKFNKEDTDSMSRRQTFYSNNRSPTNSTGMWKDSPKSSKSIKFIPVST

What is called Ki is a dissociation constant, usually derived from enzyme kinetics or from competition with a known ligand. In general, microsomal CLint refers to the capacity of the preparation to metabolise the compound, expressed as a volume cleared per time. Consider `CCOc1ncccc1C1(OC(=O)N2CCN(C3CCN(C)CC3)CC2)C(=O)N(S(=O)(=O)c2ccc(OC)cc2OC)c2ccc(C#N)cc21` (racemic) [Example 1, (±)-5-Cyano-1-[(2,4-dimethoxyphenyl)sulfonyl]-3-(2-ethoxypyridin-3-yl)-2-oxo-2,3-dihydro-1H-indol-3-yl-4-(1-methylpiperidin-4-yl)piperazine-1-carboxylate], for which the Ki in data set [1] was under 10 nM. Besides, the “Ki(h-OT)/Ki(h-V1b)*” value in data set [2] is on record as “+++ (>45)”. Moreover, the intrinsic clearance (microsomal CLint) at 0.5 μM in data set [3] is 75 to 200 µL/min/mg. Besides, the “Ki(h-V1a)/Ki(h-V1b)*” value in data set [4] is listed as “+++ (>75)”.
Consider `CCOc1ncccc1C1(OC(=O)N2CCN(C3CCN(C)CC3)CC2)C(=O)N(S(=O)(=O)c2ccccc2OC)c2ccc(C#N)cc21` (racemic) [Example 2, (±)-5-Cyano-3-(2-ethoxypyridin-3-yl)-1-[(2-methoxyphenyl)sulfonyl]-2-oxo-2,3-dihydro-1H-indol-3-yl-4-(1-methylpiperidin-4-yl)piperazine-1-carboxylate], for which the inhibition constant (Ki) in data set [1] was under 10 nM. For the same compound, the “Ki(h-OT)/Ki(h-V1b)*” value in data set [2] is “+++ (>45)”. The compound further displayed an intrinsic metabolic clearance (microsomal CLint) at 0.5 μM in data set [3] of 75 to 200 µL/min/mg. Also, in data set [4], the “Ki(h-V1a)/Ki(h-V1b)*” value is recorded as “+++ (>75)”.
As for `CCOc1ncccc1C1(OC(=O)N2CCN(C3CCN(C)CC3)CC2)C(=O)N(S(=O)(=O)c2ccccc2)c2ccc(C#N)cc21` (racemic) [Example 4, (±)-5-Cyano-3-(2-ethoxypyridin-3-yl)-2-oxo-1-(phenylsulfonyl)-2,3-dihydro-1H-indol-3-yl 4-(1-methylpiperidin-4-yl)piperazine-1-carboxylate], in data set [1], the Ki was under 10 nM. For the same compound, in data set [2], the “Ki(h-OT)/Ki(h-V1b)*” value was “+++ (>45)”. For the same compound, the microsomal CLint at 0.5 μM in data set [3] is under 50 µL/min/mg. The “Ki(h-V1a)/Ki(h-V1b)*” value in data set [4] was “+++ (>75)”.
For `CCOc1ncccc1C1(OC(=O)N2CCN(C3CCN(C)CC3)CC2)C(=O)N(S(=O)(=O)c2ccc(OC)cc2)c2ccc(C#N)cc21` (racemic) [Example 5, (±)-5-Cyano-3-(2-ethoxypyridin-3-yl)-1-[(4-methoxyphenyl)sulfonyl]-2-oxo-2,3-dihydro-1H-indol-3-yl-4-(1-methylpiperidin-4-yl)piperazine-1-carboxylate], the Ki in data set [1] is under 10 nM. Further, the “Ki(h-OT)/Ki(h-V1b)*” value in data set [2] is “++ (>25-45)”. Also, in data set [3], the microsomal CLint at 0.5 μM lay in the range of 75 to 200 µL/min/mg. Besides, in data set [4], the “Ki(h-V1a)/Ki(h-V1b)*” value was “+++ (>75)”.
For `CCOc1ncccc1C1(OC(=O)N2CCN(C3CCN(CC)CC3)CC2)C(=O)N(S(=O)(=O)c2ccccc2)c2ccc(C#N)cc21.O=C(O)C(F)(F)F` (racemic) [Example 10, (±)-5-Cyano-3-(2-ethoxypyridin-3-yl)-2-oxo-1-(phenylsulfonyl)-2,3-dihydro-1H-indol-3-yl 4-(1-ethylpiperidin-4-yl)piperazine-1-carboxylate, trifluoroacetic acid salt], in data set [1], the Ki was under 10 nM. In data set [2], the “Ki(h-OT)/Ki(h-V1b)*” value was “+++ (>45)”. Besides, in data set [3], the microsomal CLint at 0.5 μM is under 50 µL/min/mg. In data set [4], the “Ki(h-V1a)/Ki(h-V1b)*” value is “+++ (>75)”.
The matching figures for `CCOc1ncccc1C1(OC(=O)N2CCN(C3CCNCC3)CC2)C(=O)N(S(=O)(=O)c2ccc(OC)cc2OC)c2ccc(C#N)cc21` (racemic) [Example 25, (±)-5-Cyano-1-[(2,4-dimethoxyphenyl)sulfonyl]-3-(2-ethoxypyridin-3-yl)-2-oxo-2,3-dihydro-1H-indol-3-yl-4-piperidin-4-ylpiperazine-1-carboxylate as bis(trifluoroacetic acid) salt]: under 10 nM, “+ (15-25)”, 50 to 75 µL/min/mg and “+++ (>75)”.
In the case of `CCOc1ncccc1C1(OC(=O)N2CCN(C3CCNCC3)CC2)C(=O)N(S(=O)(=O)c2ccccc2)c2ccc(C#N)cc21` (racemic) [Example 28, (±)-5-Cyano-3-(2-ethoxypyridin-3-yl)-2-oxo-1-(phenylsulfonyl)-2,3-dihydro-1H-indol-3-yl 4-piperidin-4-ylpiperazine-1-carboxylate as bis(trifluoroacetic acid) salt], the inhibition constant (Ki) in data set [1] fell in the range of 10 to 50 nM. Further, the “Ki(h-OT)/Ki(h-V1b)*” value in data set [2] is “+++ (>45)”. In addition, in data set [3], the microsomal CLint at 0.5 μM was under 50 µL/min/mg. In data set [4], the “Ki(h-V1a)/Ki(h-V1b)*” value is reported as “++ (>25-75)”.
On to `CCOc1ncccc1C1(OC(=O)N2CCC(N3CCN(C)CC3)CC2)C(=O)N(S(=O)(=O)c2ccccc2OC)c2ccc(C#N)cc21` (racemic) [Example 32, (±)-5-Cyano-3-(2-ethoxypyridin-3-yl)-1-[(2-methoxyphenyl)sulfonyl]-2-oxo-2,3-dihydro-1H-indol-3-yl 4-(4-methylpiperazin-1-yl)piperidine-1-carboxylate], for which, in data set [1], the inhibition constant (Ki) was 10 to 50 nM. Moreover, the “Ki(h-OT)/Ki(h-V1b)*” value in data set [2] is recorded as “+++ (>45)”. The intrinsic metabolic clearance (microsomal CLint) at 0.5 μM in data set [3] was 75 to 200 µL/min/mg. Moreover, the “Ki(h-V1a)/Ki(h-V1b)*” value in data set [4] is “++ (>25-75)”.
The matching figures for `CCOc1ncccc1C1(OC(=O)N2CCC(N3CCN(C)CC3)CC2)C(=O)N(S(=O)(=O)c2ccc(OC)cc2)c2ccc(C#N)cc21` (racemic) [Example 35, (±)-5-Cyano-3-(2-ethoxypyridin-3-yl)-1-[(4-methoxyphenyl)sulfonyl]-2-oxo-2,3-dihydro-1H-indol-3-yl 4-(4-methylpiperazin-1-yl)piperidine-1-carboxylate]: under 10 nM, “++ (>25-45)”, 75 to 200 µL/min/mg and “++ (>25-75)”.
As for `CCOc1ncccc1C1(OC(=O)N2CCC(N3CCN(CC)CC3)CC2)C(=O)N(S(=O)(=O)c2ccc(OC)cc2OC)c2ccc(C#N)cc21` (racemic) [Example 37, (±)-5-Cyano-1-[(2,4-dimethoxyphenyl)sulfonyl]-3-(2-ethoxypyridin-3-yl)-2-oxo-2,3-dihydro-1 H-indol-3-yl-4-(4-ethylpiperazin-1-yl)piperidine-1-carboxylate], in data set [1], the inhibition constant Ki is under 10 nM. Moreover, the “Ki(h-OT)/Ki(h-V1b)*” value in data set [2] was “+++ (>45)”. This compound registered an intrinsic metabolic clearance (microsomal CLint) at 0.5 μM in data set [3] of 75 to 200 µL/min/mg. The “Ki(h-V1a)/Ki(h-V1b)*” value in data set [4] was “+++ (>75)”.
Take `CCOc1ncccc1C1(OC(=O)N2CCC(N3CCN(CC)CC3)CC2)C(=O)N(S(=O)(=O)c2ccccc2)c2ccc(C#N)cc21` (racemic) [Example 40, (±)-5-Cyano-3-(2-ethoxypyridin-3-yl)-2-oxo-1-(phenylsulfonyl)-2,3-dihydro-1H-indol-3-yl 4-(4-ethylpiperazin-1-yl)piperidine-1-carboxylate]: the inhibitory constant (Ki) in data set [1] was under 10 nM. Also, in data set [2], the “Ki(h-OT)/Ki(h-V1b)*” value is “+++ (>45)”. For the same compound, the intrinsic clearance (microsomal CLint) at 0.5 μM in data set [3] is 50 to 75 µL/min/mg. The “Ki(h-V1a)/Ki(h-V1b)*” value in data set [4] is listed as “++ (>25-75)”.
